Measured values published in ChEMBL document CHEMBL3763133, “4-Arylbenzenesulfonamides as Human Carbonic Anhydrase Inhibitors (hCAIs): Synthesis by Pd Nanocatalyst-Mediated Suzuki-Miyaura Reaction, Enzyme Inhibition, and X-ray Crystallographic Studies” (J Med Chem, 2016).

Assays:
[1] = target: Carbonic anhydrase 2 (Homo sapiens, UniProt P00918); assay: Inhibition of human carbonic anhydrase 2 incubated for 15 mins prior to testing by CO2 hydration-based stopped flow assay
[2] = target: Carbonic anhydrase 12 (Homo sapiens, UniProt O43570); assay: Inhibition of human carbonic anhydrase 12 incubated for 15 mins prior to testing by CO2 hydration-based stopped flow assay
[3] = target: T1, Carbonic anhydrase 1 (Homo sapiens, UniProt P00915); assay: Inhibition of human carbonic anhydrase 1 incubated for 15 mins prior to testing by CO2 hydration-based stopped flow assay
Target sequence in this assay (P00915 whole entry): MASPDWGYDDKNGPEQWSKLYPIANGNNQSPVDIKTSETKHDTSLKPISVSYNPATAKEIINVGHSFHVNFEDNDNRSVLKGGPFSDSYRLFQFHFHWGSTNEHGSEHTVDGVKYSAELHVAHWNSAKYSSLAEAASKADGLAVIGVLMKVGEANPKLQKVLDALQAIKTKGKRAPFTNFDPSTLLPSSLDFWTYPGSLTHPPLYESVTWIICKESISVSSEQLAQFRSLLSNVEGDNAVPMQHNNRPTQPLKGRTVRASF

[4] = target: T2, Carbonic anhydrase 9 (Homo sapiens, UniProt Q16790); assay: Inhibition of human carbonic anhydrase 9 incubated for 15 mins prior to testing by CO2 hydration-based stopped flow assay
[5] = target: T2, Carbonic anhydrase 9; assay: Potency index, ratio of Ki for acetazolamide to Ki for test compound for inhibition of human carbonic anhydrase 9
[6] = target: T1, Carbonic anhydrase 1; assay: Potency index, ratio of Ki for acetazolamide to Ki for test compound for inhibition of human carbonic anhydrase 1
Target sequence in this assay (P00915 2-261 limits assumed): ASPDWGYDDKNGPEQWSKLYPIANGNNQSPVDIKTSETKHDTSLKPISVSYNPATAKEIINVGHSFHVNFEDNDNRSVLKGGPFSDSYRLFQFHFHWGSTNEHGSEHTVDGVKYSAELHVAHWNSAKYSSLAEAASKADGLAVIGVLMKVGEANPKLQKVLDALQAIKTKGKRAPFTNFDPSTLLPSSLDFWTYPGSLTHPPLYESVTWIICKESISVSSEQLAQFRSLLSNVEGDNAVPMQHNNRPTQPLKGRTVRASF

Sequence of Carbonic anhydrase 12 (O43570 whole entry): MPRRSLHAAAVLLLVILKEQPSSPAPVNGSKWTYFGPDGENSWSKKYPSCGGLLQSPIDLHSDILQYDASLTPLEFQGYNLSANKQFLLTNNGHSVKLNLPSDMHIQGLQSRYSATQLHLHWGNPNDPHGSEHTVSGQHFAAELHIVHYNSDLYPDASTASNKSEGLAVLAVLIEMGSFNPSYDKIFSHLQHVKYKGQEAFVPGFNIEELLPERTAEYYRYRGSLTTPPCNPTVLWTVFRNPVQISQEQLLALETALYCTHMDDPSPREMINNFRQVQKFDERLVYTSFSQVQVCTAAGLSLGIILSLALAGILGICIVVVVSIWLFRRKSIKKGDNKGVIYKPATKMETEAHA

Ki [1]	Ki [2]	Ki [3]	Ki [4]	Ratio Ki [5]	Ratio Ki [6]	SMILES
10.2 nM	5.6 nM	656 nM	124 nM			NS(=O)(=O)c1ccc(-c2cc3ccccc3[nH]2)cc1
2.1 nM	0.58 nM	1180 nM				NS(=O)(=O)c1ccc(-c2cccc(C=O)c2)cc1
0.7 nM	> 10000 nM	185 nM	0.37 nM	100		NS(=O)(=O)c1ccc(-c2cc3ccccc3o2)cc1
0.84 nM	> 10000 nM	370 nM	0.21 nM	100		NS(=O)(=O)c1ccc(-c2cc3ccccc3s2)cc1
1.2 nM	47 nM	3500 nM				Cc1ccccc1-c1ccc(S(N)(=O)=O)cc1
2.5 nM	760 nM	35.2 nM	0.18 nM	100	6	NS(=O)(=O)c1ccc(-c2cnc3ccccc3c2)cc1
0.69 nM	> 10000 nM	1000 nM	0.22 nM	100		NS(=O)(=O)c1ccc(-c2ccc3ccccc3c2)cc1
0.98 nM	0.58 nM	146 nM				CC(C)c1ccccc1-c1ccc(S(N)(=O)=O)cc1
0.79 nM	92.7 nM	41.5 nM	0.21 nM	100	6	NS(=O)(=O)c1ccc(-c2ccccc2)cc1
9.3 nM	4.3 nM	2340 nM	126 nM			Nc1cccc(-c2ccc(S(N)(=O)=O)cc2)c1

Further lines, the molecule ahead of its results:

SMILES	Ki [1]	Ki [2]	Ki [3]	Ki [4]	Ratio Ki [5]	Ratio Ki [6]
Nc1ccc(-c2ccc(S(N)(=O)=O)cc2)cc1	12.3 nM	36.5 nM	3700 nM			
NS(=O)(=O)c1ccc(-c2ccc(-c3ccc(S(N)(=O)=O)cc3)cc2)cc1	324 nM	4.9 nM	> 10000 nM	240 nM		
COc1ccc2[nH]c(-c3ccc(S(N)(=O)=O)cc3)cc2c1	764 nM	415 nM	2640 nM	156 nM		
COc1cc(-c2ccc(S(N)(=O)=O)cc2)cc(OC)c1OC	19.1 nM	32.2 nM	9520 nM	259 nM		
NS(=O)(=O)c1ccc(-c2cccc(-c3ccc(S(N)(=O)=O)cc3)c2)cc1	397 nM	55.6 nM	> 10000 nM	276 nM		
NS(=O)(=O)c1ccc(-c2cccnc2)cc1	16.6 nM	20.3 nM	2400 nM	78.1 nM		
N#Cc1ccc(-c2ccc(S(N)(=O)=O)cc2)cc1	1.2 nM	14.2 nM	1340 nM	228 nM		
NS(=O)(=O)c1ccc(-c2ccc3c(c2)OCO3)cc1	18 nM	5.2 nM	> 10000 nM	258 nM		
NS(=O)(=O)c1ccc(-c2cn(S(=O)(=O)c3ccccc3)c3ccccc23)cc1	0.68 nM	96.7 nM	83.6 nM	0.24 nM	100	
NS(=O)(=O)c1ccc(-c2ccc(-c3ccc(Br)cc3)cc2)cc1	764 nM	54.2 nM	> 10000 nM	224 nM		
NS(=O)(=O)c1ccc(-c2ccc3[nH]ccc3c2)cc1	0.95 nM	65 nM	24.5 nM	0.17 nM	100	10
NS(=O)(=O)c1ccc(-c2cc3ccccc3n2S(=O)(=O)c2ccccc2)cc1	11.7 nM	33.9 nM	> 10000 nM	100 nM		
COC(=O)c1cccc(-c2ccc(S(N)(=O)=O)cc2)c1	14.2 nM	19.5 nM	6960 nM	159 nM		
NS(=O)(=O)c1ccc(-c2ccc(Cn3cccn3)cc2)cc1	11.1 nM	38.3 nM	6970 nM	216 nM		
